Assay [1] addresses Dihydrofolate reductase (Lactobacillus casei) (UniProt P00381). As to conditions: Lacticaseibacillus casei.
Description: Tested for pK value of histidine residue(His-28) of Dihydrofolate reductase from Lactobacillus casei
Assay [2] has as its target T1, Dihydrofolate reductase (Lactobacillus casei, UniProt P00381). Nature of the assay: Inhibition constant of compound against Lactobacillus casei Dihydrofolate reductase. Also noted: species or system Lacticaseibacillus casei.
For assay [3], the target named is Dihydrofolate reductase (Lactobacillus casei) (UniProt P00381). In words: Tested for pK value of histidine residue(His-28) of dihydrofolate reductase from Lactobacillus casei. It counts as functional. As to conditions: Lacticaseibacillus casei.
Chain of Dihydrofolate reductase (Lactobacillus casei) (P00381 whole entry): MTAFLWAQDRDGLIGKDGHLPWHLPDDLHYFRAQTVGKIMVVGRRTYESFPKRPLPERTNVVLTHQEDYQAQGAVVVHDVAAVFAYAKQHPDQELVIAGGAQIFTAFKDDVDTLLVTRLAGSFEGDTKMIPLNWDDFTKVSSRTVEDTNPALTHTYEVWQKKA
In assay [4] the target is T1, Dihydrofolate reductase. In words: Inhibition constant of compound against Lactobacillus casei dihydrofolate reductase. On the set-up: species or system Lacticaseibacillus casei.

A value given as a limit tells only on which side of the number the result lay.

T1 sequence (P00381 whole entry): as above

Consider `COc1cc(Cc2cnc(N)nc2N)cc(OCCCC(CCC(=O)O)C(=O)O)c1Br` (stereo unspecified), for which the pK in assay [1] was 7.8. Besides, at Dihydrofolate reductase [2], the Ki is under 0.01 nM.
`COc1cc(Cc2cnc(N)nc2N)cc(OCCCCCC(=O)O)c1Br` gave a Ki on Dihydrofolate reductase [2] of 0.4 nM.
`COc1cc(Cc2cnc(N)nc2N)cc(OC)c1Br` [BRODIMOPRIM] yielded a pK in assay [3] of 6.8. On Dihydrofolate reductase [4], this compound yielded a Ki of 11.3 nM.
For `COc1cc(Cc2cnc(N)nc2N)cc(OCCCCC(=O)O)c1Br`, the pK in assay [1] came to 6.83. Also, the affinity on Dihydrofolate reductase [2], expressed as Ki, was 0.2 nM.
Taken in the same sequence, the figures for `COc1cc(Cc2cnc(N)nc2N)cc(OCCC(=O)NC(CCC(=O)O)C(=O)O)c1Br` (stereo unspecified) were 7.12 and 1.7 nM.
The matching figures for `COc1cc(Cc2cnc(N)nc2N)cc(OCCCCCCC(=O)O)c1Br`: 6.8 and 0.6 nM.
Consider `COc1cc(Cc2cnc(N)nc2N)cc(OCCCNCCC(=O)O)c1Br`, for which the pK in assay [3] was 6.71. The Ki at Dihydrofolate reductase [4] was found to be 5.3 nM.
`COc1cc(Cc2cnc(N)nc2N)cc(OCCCC(=O)O)c1Br` returned an inhibition constant (Ki) on Dihydrofolate reductase [2] of 0.9 nM.
Compound `COc1cc(Cc2cnc(N)nc2N)cc(OCCC(=O)NCC(=O)O)c1Br` showed a pK in assay [1] of 6.71. For the same compound, affinity at Dihydrofolate reductase [2] was put at a Ki of 4.1 nM.

As a reminder, the Ki is the dissociation constant of the complex between target and ligand, obtained from inhibition or displacement. Higher therefore signals lower affinity.

The values above are taken from ChEMBL document CHEMBL1122542, “A 1H NMR study of the interactions and conformations of rationally designed brodimoprim analogues in complexes with Lactobacillus casei dihydrofolate reductase” (J Med Chem, 1984).
